{"source": "ChEMBL document CHEMBL1201862", "about": "“PubChem BioAssay data set” (2004)", "test_in_all_cases": "NCI tumour cell line growth inhibition, 48 h", "key": {"[1]": {"system": "NCI-H522"}, "[2]": {"system": "U-251"}, "[3]": {"system": "SK-MEL-2"}, "[4]": {"system": "UACC-257"}, "[5]": {"system": "COLO 205"}, "[6]": {"system": "ACHN"}, "[7]": {"system": "MOLT-4"}, "[8]": {"system": "NCI-H226"}, "[9]": {"system": "TK-10"}, "[10]": {"system": "A549"}, "[11]": {"system": "MCF7"}, "[12]": {"system": "HCC 2998"}, "[13]": {"system": "OVCAR-3"}, "[14]": {"system": "KM12"}, "[15]": {"system": "SR"}, "[16]": {"system": "SF-295"}, "[17]": {"system": "OVCAR-4"}, "[18]": {"system": "MDA-N"}, "[19]": {"system": "HCT-15"}, "[20]": {"system": "MDA-MB-231"}, "[21]": {"system": "DU-145"}, "[22]": {"system": "OVCAR-5"}, "[23]": {"system": "UO-31"}, "[24]": {"system": "RXF 393"}, "[25]": {"system": "Hs-578T"}, "[26]": {"system": "NCI-H23"}, "[27]": {"system": "786-0"}, "[28]": {"system": "SW-620"}, "[29]": {"system": "SK-MEL-5"}, "[30]": {"system": "T47D"}, "[31]": {"system": "SN12C"}, "[32]": {"system": "Malme-3M"}, "[33]": {"system": "K562"}, "[34]": {"system": "LOX IMVI"}, "[35]": {"system": "NCI-H460"}, "[36]": {"system": "BT-549"}, "[37]": {"system": "MDA-MB-435"}, "[38]": {"system": "UACC-62"}, "[39]": {"system": "CCRF-CEM"}, "[40]": {"system": "IGROV-1"}, "[41]": {"system": "M14"}, "[42]": {"system": "SNB-19"}, "[43]": {"system": "HT-29"}, "[44]": {"system": "HOP-92"}, "[45]": {"system": "OVCAR-8"}, "[46]": {"system": "RPMI-8226"}, "[47]": {"system": "HL-60"}, "[48]": {"system": "SNB-75"}, "[49]": {"system": "SK-OV-3"}, "[50]": {"system": "HCT-116"}, "[51]": {"system": "SF-268"}, "[52]": {"system": "HOP-62"}, "[53]": {"system": "SK-MEL-28"}, "[54]": {"system": "PC-3"}, "[55]": {"system": "EKVX"}, "[56]": {"system": "CAKI-1"}, "[57]": {"system": "A498"}, "[58]": {"system": "SF-539"}}, "note": "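Protocol summary: plate cells (96-well), add compound at 5 concentrations, incubate 48 h, interpolate endpoints linearly. Abbreviation: GI50, concentration required for 50% inhibition of growth.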 The source made the active and inactive calls. Cut-off read from the data, not from the text of the source: active = GI50 up to about 1.1 µM and inactive = higher."}
{"molecule": "CN1CCN(C(=S)N(C)C(=O)c2cccs2)CC1", "values": [{"measurement": "GI50", "setting": "[1]", "value": "> 100 µM (inactive)"}, {"measurement": "GI50", "setting": "[2]", "value": "> 100 µM (inactive)"}, {"measurement": "GI50", "setting": "[3]", "value": "> 100 µM (inactive)"}, {"measurement": "GI50", "setting": "[4]", "value": "> 100 µM (inactive)"}, {"measurement": "GI50", "setting": "[5]", "value": "> 100 µM (inactive)"}, {"measurement": "GI50", "setting": "[6]", "value": "> 100 µM (inactive)"}, {"measurement": "GI50", "setting": "[7]", "value": "> 100 µM (inactive)"}, {"measurement": "GI50", "setting": "[8]", "value": "> 100 µM (inactive)"}, {"measurement": "GI50", "setting": "[9]", "value": "> 100 µM (inactive)"}, {"measurement": "GI50", "setting": "[10]", "value": "> 100 µM (inactive)"}, {"measurement": "GI50", "setting": "[11]", "value": "> 100 µM (inactive)"}, {"measurement": "GI50", "setting": "[12]", "value": "> 100 µM (inactive)"}, {"measurement": "GI50", "setting": "[13]", "value": "> 100 µM (inactive)"}, {"measurement": "GI50", "setting": "[14]", "value": "> 100 µM (inactive)"}, {"measurement": "GI50", "setting": "[15]", "value": "> 100 µM (inactive)"}, {"measurement": "GI50", "setting": "[16]", "value": "> 100 µM (inactive)"}, {"measurement": "GI50", "setting": "[17]", "value": "> 100 µM (inactive)"}, {"measurement": "GI50", "setting": "[18]", "value": "> 100 µM (inactive)"}, {"measurement": "GI50", "setting": "[19]", "value": "> 100", "unit": "µM"}, {"measurement": "GI50", "setting": "[20]", "value": "> 100 µM (inactive)"}, {"measurement": "GI50", "setting": "[21]", "value": "> 100 µM (inactive)"}, {"measurement": "GI50", "setting": "[22]", "value": "> 100 µM (inactive)"}, {"measurement": "GI50", "setting": "[23]", "value": "> 100 µM (inactive)"}, {"measurement": "GI50", "setting": "[24]", "value": "> 100 µM (inactive)"}, {"measurement": "GI50", "setting": "[25]", "value": "> 100 µM (inactive)"}, {"measurement": "GI50", "setting": "[26]", "value": "> 100 µM (inactive)"}, {"measurement": "GI50", "setting": "[27]", "value": "> 100 µM (inactive)"}, {"measurement": "GI50", "setting": "[28]", "value": "> 100 µM (inactive)"}, {"measurement": "GI50", "setting": "[29]", "value": "> 100 µM (inactive)"}, {"measurement": "GI50", "setting": "[30]", "value": "> 100 µM (inactive)"}, {"measurement": "GI50", "setting": "[31]", "value": "> 100 µM (inactive)"}, {"measurement": "GI50", "setting": "[32]", "value": "> 100 µM (inactive)"}, {"measurement": "GI50", "setting": "[33]", "value": "> 100 µM (inactive)"}, {"measurement": "GI50", "setting": "[34]", "value": "> 100 µM (inactive)"}, {"measurement": "GI50", "setting": "[35]", "value": "> 100 µM (inactive)"}, {"measurement": "GI50", "setting": "[36]", "value": "> 100 µM (inactive)"}, {"measurement": "GI50", "setting": "[37]", "value": "> 100 µM (inactive)"}, {"measurement": "GI50", "setting": "[38]", "value": "> 100 µM (inactive)"}, {"measurement": "GI50", "setting": "[39]", "value": "> 100 µM (inactive)"}, {"measurement": "GI50", "setting": "[40]", "value": "> 100 µM (inactive)"}, {"measurement": "GI50", "setting": "[41]", "value": "> 100 µM (inactive)"}, {"measurement": "GI50", "setting": "[42]", "value": "> 100 µM (inactive)"}, {"measurement": "GI50", "setting": "[43]", "value": "> 100 µM (inactive)"}, {"measurement": "GI50", "setting": "[44]", "value": "> 100 µM (inactive)"}, {"measurement": "GI50", "setting": "[45]", "value": "> 100 µM (inactive)"}, {"measurement": "GI50", "setting": "[46]", "value": "> 100 µM (inactive)"}]}
{"molecule": "CCc1cccc(CC)c1Nc1nc(-c2ccccc2-c2ccccc2)cs1", "values": [{"measurement": "GI50", "setting": "[1]", "value": "84.7 µM (inactive)"}, {"measurement": "GI50", "setting": "[47]", "value": "55.7 µM (inactive)"}, {"measurement": "GI50", "setting": "[2]", "value": "54.8 µM (inactive)"}, {"measurement": "GI50", "setting": "[3]", "value": "> 100 µM (inactive)"}, {"measurement": "GI50", "setting": "[4]", "value": "> 100 µM (inactive)"}, {"measurement": "GI50", "setting": "[5]", "value": "66.5 µM (inactive)"}, {"measurement": "GI50", "setting": "[48]", "value": "29.5 µM (inactive)"}, {"measurement": "GI50", "setting": "[6]", "value": "> 100 µM (inactive)"}, {"measurement": "GI50", "setting": "[49]", "value": "> 100 µM (inactive)"}, {"measurement": "GI50", "setting": "[50]", "value": "51.2 µM (inactive)"}, {"measurement": "GI50", "setting": "[51]", "value": "> 100 µM (inactive)"}, {"measurement": "GI50", "setting": "[7]", "value": "75.2 µM (inactive)"}, {"measurement": "GI50", "setting": "[52]", "value": "> 100 µM (inactive)"}, {"measurement": "GI50", "setting": "[9]", "value": "82.2 µM (inactive)"}, {"measurement": "GI50", "setting": "[10]", "value": "> 100 µM (inactive)"}, {"measurement": "GI50", "setting": "[11]", "value": "66.2 µM (inactive)"}, {"measurement": "GI50", "setting": "[12]", "value": "> 100 µM (inactive)"}, {"measurement": "GI50", "setting": "[13]", "value": "57.1 µM (inactive)"}, {"measurement": "GI50", "setting": "[14]", "value": "94.8 µM (inactive)"}, {"measurement": "GI50", "setting": "[15]", "value": "52.1 µM (inactive)"}, {"measurement": "GI50", "setting": "[16]", "value": "> 100 µM (inactive)"}, {"measurement": "GI50", "setting": "[17]", "value": "> 100 µM (inactive)"}, {"measurement": "GI50", "setting": "[18]", "value": "50.8 µM (inactive)"}, {"measurement": "GI50", "setting": "[19]", "value": 94.2, "unit": "µM"}, {"measurement": "GI50", "setting": "[53]", "value": "> 100 µM (inactive)"}, {"measurement": "GI50", "setting": "[20]", "value": "> 100 µM (inactive)"}, {"measurement": "GI50", "setting": "[21]", "value": "> 100 µM (inactive)"}, {"measurement": "GI50", "setting": "[54]", "value": "53.2 µM (inactive)"}, {"measurement": "GI50", "setting": "[22]", "value": "> 100 µM (inactive)"}, {"measurement": "GI50", "setting": "[23]", "value": "64.4 µM (inactive)"}, {"measurement": "GI50", "setting": "[55]", "value": "> 100 µM (inactive)"}, {"measurement": "GI50", "setting": "[24]", "value": "> 100 µM (inactive)"}, {"measurement": "GI50", "setting": "[56]", "value": "> 100 µM (inactive)"}, {"measurement": "GI50", "setting": "[25]", "value": "70.6 µM (inactive)"}, {"measurement": "GI50", "setting": "[26]", "value": "93.8 µM (inactive)"}, {"measurement": "GI50", "setting": "[27]", "value": "> 100 µM (inactive)"}, {"measurement": "GI50", "setting": "[57]", "value": "> 100 µM (inactive)"}, {"measurement": "GI50", "setting": "[28]", "value": "> 100 µM (inactive)"}, {"measurement": "GI50", "setting": "[29]", "value": "79.1 µM (inactive)"}, {"measurement": "GI50", "setting": "[30]", "value": "> 100 µM (inactive)"}, {"measurement": "GI50", "setting": "[31]", "value": "> 100 µM (inactive)"}, {"measurement": "GI50", "setting": "[32]", "value": "> 100 µM (inactive)"}, {"measurement": "GI50", "setting": "[33]", "value": "51.5 µM (inactive)"}, {"measurement": "GI50", "setting": "[58]", "value": "> 100 µM (inactive)"}, {"measurement": "GI50", "setting": "[34]", "value": "> 100 µM (inactive)"}, {"measurement": "GI50", "setting": "[35]", "value": "65.3 µM (inactive)"}, {"measurement": "GI50", "setting": "[36]", "value": "18.2 µM (inactive)"}, {"measurement": "GI50", "setting": "[37]", "value": "35 µM (inactive)"}, {"measurement": "GI50", "setting": "[38]", "value": "86.5 µM (inactive)"}, {"measurement": "GI50", "setting": "[39]", "value": "> 100 µM (inactive)"}, {"measurement": "GI50", "setting": "[40]", "value": "43.7 µM (inactive)"}, {"measurement": "GI50", "setting": "[41]", "value": "92.9 µM (inactive)"}, {"measurement": "GI50", "setting": "[42]", "value": "> 100 µM (inactive)"}, {"measurement": "GI50", "setting": "[44]", "value": "46.6 µM (inactive)"}, {"measurement": "GI50", "setting": "[46]", "value": "30.3 µM (inactive)"}]}
